In patent publication US20220132847A1, “CINNOLINIUM COMPOUNDS FOR USE IN A METHOD OF CONTROLLING UNWANTED PLANT GROWTH” (SYNGENTA CROP PROTECTION AG, priority 2019, published 2022):
Counter-ions that a name gives are not always drawn.

Tests used:
Test in all cases: Post-emergence efficacy, glasshouse
Format in all cases: in vivo
[1] = tested on: Amaranthus palmeri (AMAPA); conditions: Amaranthus palmeri, post-emergence, 312 h, evaluated after 13 days, 100=total damage to plant, 0=no damage to plant, read-out: Control of weed species after post-emergence application, AMAPA; for pest or weed control at 1000 g/ha: Application Rate 1000 g/Ha
Method: (§1) Seeds of a variety of test species were sown in standard soil in pots. After cultivation for 14 days (post-emergence) under controlled conditions in a glasshouse (at 24/16° C., day/night; 14 hours light; 65% humidity), the plants were sprayed with an aqueous spray solution derived from the dissolution of the technical active ingredient formula (I) in a small amount of acetone and a special solvent and emulsifier mixture referred to as IF50 (11.12% Emulsogen EL360™+44.44% N-methylpyrrolidone+44.44% Dowanol DPM glycol ether), to create a 50 g/l solution which was then diluted to required concentration using 0.25% or 1% Empicol ESC70 (Sodium lauryl ether sulphate)+1% ammonium sulphate in water as diluent.
(§2) The test plants were then grown in a glasshouse under controlled conditions (at 24/16° C., day/night; 14 hours light; 65% humidity) and watered twice daily. After 13 days the test was evaluated (100=total damage to plant; 0=no damage to plant).
(§3) Ipomoea hederacea (IPOHE), Euphorbia heterophylla (EPHHL), Chenopodium album (CHEAL), Amaranthus palmeri (AMAPA), Lolium perenne (LOLPE), Digitaria sanguinalis (DIGSA), Eleusine indica (ELEIN), Echinochloa crus-galli (ECHCG), Setaria faberi (SETFA)

[2] = tested on: Chenopodium album (CHEAL); conditions: Chenopodium album, post-emergence, 312 h, evaluated after 13 days, 100=total damage to plant, 0=no damage to plant, read-out: Control of weed species after post-emergence application, CHEAL; for pest or weed control at 1000 g/ha: Application Rate 1000 g/Ha
Method: as §1, §2, §3

[3] = tested on: Digitaria sanguinalis (DIGSA); conditions: Digitaria sanguinalis, post-emergence, 312 h, evaluated after 13 days, 100=total damage to plant, 0=no damage to plant, read-out: Control of weed species after post-emergence application, DIGSA; for pest or weed control at 1000 g/ha: Application Rate 1000 g/Ha
Method: as §1, §2, §3

[4] = tested on: Echinochloa crus-galli (ECHCG); conditions: Echinochloa crus-galli, post-emergence, 312 h, evaluated after 13 days, 100=total damage to plant, 0=no damage to plant, read-out: Control of weed species after post-emergence application, ECHCG; for pest or weed control at 1000 g/ha: Application Rate 1000 g/Ha
Method: as §1, §2, §3

Eleusine indica (ELEIN) = conditions: Eleusine indica, post-emergence, 312 h, evaluated after 13 days, 100=total damage to plant, 0=no damage to plant, read-out: Control of weed species after post-emergence application, ELEIN; for pest or weed control at 1000 g/ha: Application Rate 1000 g/Ha
Method: as §1, §2, §3

[5] = tested on: Euphorbia heterophylla (EPHHL); conditions: Euphorbia heterophylla, post-emergence, 312 h, evaluated after 13 days, 100=total damage to plant, 0=no damage to plant, read-out: Control of weed species after post-emergence application, EPHHL; for pest or weed control at 1000 g/ha: Application Rate 1000 g/Ha
Method: as §1, §2, §3

[6] = tested on: Ipomoea hederacea (IPOHE); conditions: Ipomoea hederacea, post-emergence, 312 h, evaluated after 13 days, 100=total damage to plant, 0=no damage to plant, read-out: Control of weed species after post-emergence application, IPOHE; for pest or weed control at 1000 g/ha: Application Rate 1000 g/Ha
Method: as §1, §2, §3

Lolium perenne (LOLPE) = conditions: Lolium perenne, post-emergence, 312 h, evaluated after 13 days, 100=total damage to plant, 0=no damage to plant, read-out: Control of weed species after post-emergence application, LOLPE; for pest or weed control at 1000 g/ha: Application Rate 1000 g/Ha
Method: as §1, §2, §3

Setaria faberi (SETFA) = conditions: Setaria faberi, post-emergence, 312 h, evaluated after 13 days, 100=total damage to plant, 0=no damage to plant, read-out: Control of weed species after post-emergence application, SETFA; for pest or weed control at 1000 g/ha: Application Rate 1000 g/Ha
Method: as §1, §2, §3

| SMILES | pest or weed control at 1000 g/ha [1] [%] | pest or weed control at 1000 g/ha [2] [%] | pest or weed control at 1000 g/ha [3] [%] | pest or weed control at 1000 g/ha [4] [%] | pest or weed control at 1000 g/ha (Eleusine indica (ELEIN)) [%] | pest or weed control at 1000 g/ha [5] [%] | pest or weed control at 1000 g/ha [6] [%] | pest or weed control at 1000 g/ha (Lolium perenne (LOLPE)) [%] | pest or weed control at 1000 g/ha (Setaria faberi (SETFA)) [%] | pest or weed control at 500 g/ha ([1]; Application Rate 500 g/Ha) [%] | pest or weed control at 500 g/ha ([2]; Application Rate 500 g/Ha) [%] | pest or weed control at 500 g/ha ([3]; Application Rate 500 g/Ha) [%] | pest or weed control at 500 g/ha ([4]; Application Rate 500 g/Ha) [%] | pest or weed control at 500 g/ha (Eleusine indica (ELEIN); Application Rate 500 g/Ha) [%] | pest or weed control at 500 g/ha ([5]; Application Rate 500 g/Ha) [%] | pest or weed control at 500 g/ha ([6]; Application Rate 500 g/Ha) [%] | pest or weed control at 500 g/ha (Lolium perenne (LOLPE); Application Rate 500 g/Ha) [%] | pest or weed control at 500 g/ha (Setaria faberi (SETFA); Application Rate 500 g/Ha) [%] |
| --- | --- | --- | --- | --- | --- | --- | --- | --- | --- | --- | --- | --- | --- | --- | --- | --- | --- | --- |
| C[n+]1cc(C(=O)[N-]c2nnn[nH]2)c2ccccc2n1 [Compound A17] | 50 | 30 | 10 | 0 | 20 | 20 | 40 | 10 | 10 | – | – | – | – | – | – | – | – | – |
| COC(=O)CC[n+]1cc(C(=O)[N-]S(C)(=O)=O)c2ccccc2n1 [Compound A18] | 10 | 10 | 30 | 20 | 20 | 10 | 20 | 0 | 10 | – | – | – | – | – | – | – | – | – |
| COC(=O)CC[n+]1cc(C(=O)[N-]S(=O)(=O)C2CC2)c2ccccc2n1 [Compound A19, cyclopropylsulfonyl-[2-(3-methoxy-3-oxo-propyl)cinnolin-2-ium-4-carbonyl]azanide] | – | – | – | – | – | – | – | – | – | 30 | 60 | 40 | 60 | 50 | 40 | 30 | 20 | 0 |
| O=C(O)CC[n+]1cc(C(=O)[N-]S(=O)(=O)C2CC2)c2ccccc2n1 [Compound A20, [2-(2-carboxyethyl)cinnolin-2-ium-4-carbonyl]-cyclopropylsulfonyl-azanide] | 50 | 30 | 0 | 10 | 0 | 20 | 10 | 0 | 0 | – | – | – | – | – | – | – | – | – |
| CS(=O)(=O)[N-]C(=O)c1c[n+](CCO)nc2ccccc12 [Compound A21] | 90 | 70 | 70 | 50 | 80 | 80 | 80 | 60 | 90 | – | – | – | – | – | – | – | – | – |
| CC[n+]1cc(C(=O)[N-]S(C)(=O)=O)c2ccccc2n1 [Compound A22, (2-ethylcinnolin-2-ium-4-carbonyl)-methylsulfonyl-azanide] | 70 | 70 | 80 | 50 | 70 | 60 | 90 | 60 | 70 | – | – | – | – | – | – | – | – | – |
| O=C(O)C[n+]1cc(C(=O)[O-])c2ccccc2n1 [Compound A23, 2-(carboxymethyl)cinnolin-2-ium-4-carboxylate] | 50 | 50 | 70 | 30 | 40 | 20 | 20 | 10 | 30 | – | – | – | – | – | – | – | – | – |
| COCC[n+]1cc(C(=O)[N-]S(C)(=O)=O)c2ccccc2n1 [Compound A24] | 70 | 70 | 40 | 50 | 50 | 40 | 60 | 20 | 50 | – | – | – | – | – | – | – | – | – |
| Cn1ncnc1NC(=O)c1c[n+](C)nc2ccccc12 [Compound A25, 2-methyl-N-(2-methyl-1,2,4-triazol-3-yl)cinnolin-2-ium-4-carboxamide iodide] | 50 | 50 | 10 | 10 | 10 | 20 | 30 | 10 | 20 | – | – | – | – | – | – | – | – | – |
| C[n+]1cc(C(=O)Nc2nncs2)c2ccccc2n1 [Compound A26] | 20 | 40 | 0 | 20 | 20 | 20 | 30 | 10 | 10 | – | – | – | – | – | – | – | – | – |
| O=C(O)c1c[n+](CCOS(=O)(=O)[O-])nc2ccccc12 [Compound A28, 2-(4-carboxycinnolin-2-ium-2-yl)ethyl sulfate] | 90 | 70 | 70 | 20 | 40 | 30 | 20 | 50 | 40 | – | – | – | – | – | – | – | – | – |
| C[n+]1cc(C(=O)O)c2ccccc2n1 [Compound A29] | 90 | 90 | 30 | 40 | 20 | 80 | 80 | 40 | 50 | – | – | – | – | – | – | – | – | – |
| O=C(O)c1c[n+](CCO)nc2ccccc12 [Compound A30] | 100 | 100 | 90 | 50 | 80 | 100 | 100 | 40 | 70 | – | – | – | – | – | – | – | – | – |
